The source of these data is ChEMBL document CHEMBL4043142, “Discovery of new leads against Mycobacterium tuberculosis using scaffold hopping and shape based similarity” (Bioorg Med Chem, 2017).

Data set [1] is described as follows: Half life in mouse microsomes. Type of data set: ADME, Microsome.
For data set [2], the system named is Mycobacterium tuberculosis. Briefly: Antitubercular activity against Mycobacterium tuberculosis H37Rv ATCC 25618 after 6 days by resazurin dye based assay. Type of data set: functional. Conditions: H37Rv ATCC 25618, 144 h.
For data set [3], the system named is Mycobacterium tuberculosis. Put plainly: Antitubercular activity against clinical isolates of Mycobacterium tuberculosis by broth microdilution assay. Format: functional. On the technique in general: Dilution methods test growth across graded concentrations, often in twofold steps.
Data set [4] in a line: Protection index, ratio of IC50 for African green monkey Vero cells to MIC for Mycobacterium tuberculosis H37Rv.
In data set [5] the test system is HepG2. Briefly: Cytotoxicity against human HepG2 cells after 48 hrs by CellTiter-Glo assay. Type of data set: cell-based. Conditions: HepG2, 48 h. A general note: In ATP-based viability assays light output follows the ATP content of the culture.
Data set [6] in a line: Protection index, ratio of IC50 for HepG2 cells to MIC for Mycobacterium tuberculosis H37Rv.

Broadly, the half-life is the time in which the quantity being followed falls by half. One may read the MIC as the smallest concentration in the dilution series that meets the test's criterion for growth inhibition. What is called pIC50 is −log10 of the IC50, conventionally taken in molar units.

pIC50: −log10 of the molar value. ≈ marks a conversion by molar mass, not a printed value.

Take `Cc1c(CN2CCN(C)CC2)cc(-c2ccc(Cl)cc2)n1-c1ccc(Cl)cc1`: in data set [1], the half-life was > 30 min. The MIC in data set [2] came out at 5 µM (≈ 2.07 µg/mL); in data set [3] it was 1.5 µg/mL (≈ 3.62 µM). Further, the Ratio in data set [4] and in data set [6] was 127.5 - 1937.5 throughout. Moreover, the pIC50 in data set [5] was 5.11.
